Measured values published in patent US8785470B2, “Heterocyclic compounds and uses thereof” (Infinity Pharmaceuticals, Inc., priority 2011, dated 2014).
pIC50: −log10 of the molar value.

These compounds were tested against T1, PI3Kα (Homo sapiens, UniProt P42336) (assay: PI3-Kinase HTRF assay, PI3Kα). Conditions: bins Greater than 10 μM and Greater than 1 μM to 10 μM; 10 μM ATP, PIP2 at 10 μM; read-out: IC50 P13Kα.
T1 construct: purchased Millipore Corporation 14-602-K
Type: biochemical
Outline: (§1)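 Purified recombinant human PI3Kα, β, γ or δ (0.25-0.3 μg/ml) preincubated 15 min at room temperature with compound (2% DMSO) and 10 μM PIP2, then reacted 1 h with 10 μM ATP. PIP3 product detected by competitive HTRF (GST-PH domain/biotin-PIP3); IC50 from 12-point curves, 20 μM to 0.1 nM, by nonlinear regression.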

T1 sequence (P42336 whole entry): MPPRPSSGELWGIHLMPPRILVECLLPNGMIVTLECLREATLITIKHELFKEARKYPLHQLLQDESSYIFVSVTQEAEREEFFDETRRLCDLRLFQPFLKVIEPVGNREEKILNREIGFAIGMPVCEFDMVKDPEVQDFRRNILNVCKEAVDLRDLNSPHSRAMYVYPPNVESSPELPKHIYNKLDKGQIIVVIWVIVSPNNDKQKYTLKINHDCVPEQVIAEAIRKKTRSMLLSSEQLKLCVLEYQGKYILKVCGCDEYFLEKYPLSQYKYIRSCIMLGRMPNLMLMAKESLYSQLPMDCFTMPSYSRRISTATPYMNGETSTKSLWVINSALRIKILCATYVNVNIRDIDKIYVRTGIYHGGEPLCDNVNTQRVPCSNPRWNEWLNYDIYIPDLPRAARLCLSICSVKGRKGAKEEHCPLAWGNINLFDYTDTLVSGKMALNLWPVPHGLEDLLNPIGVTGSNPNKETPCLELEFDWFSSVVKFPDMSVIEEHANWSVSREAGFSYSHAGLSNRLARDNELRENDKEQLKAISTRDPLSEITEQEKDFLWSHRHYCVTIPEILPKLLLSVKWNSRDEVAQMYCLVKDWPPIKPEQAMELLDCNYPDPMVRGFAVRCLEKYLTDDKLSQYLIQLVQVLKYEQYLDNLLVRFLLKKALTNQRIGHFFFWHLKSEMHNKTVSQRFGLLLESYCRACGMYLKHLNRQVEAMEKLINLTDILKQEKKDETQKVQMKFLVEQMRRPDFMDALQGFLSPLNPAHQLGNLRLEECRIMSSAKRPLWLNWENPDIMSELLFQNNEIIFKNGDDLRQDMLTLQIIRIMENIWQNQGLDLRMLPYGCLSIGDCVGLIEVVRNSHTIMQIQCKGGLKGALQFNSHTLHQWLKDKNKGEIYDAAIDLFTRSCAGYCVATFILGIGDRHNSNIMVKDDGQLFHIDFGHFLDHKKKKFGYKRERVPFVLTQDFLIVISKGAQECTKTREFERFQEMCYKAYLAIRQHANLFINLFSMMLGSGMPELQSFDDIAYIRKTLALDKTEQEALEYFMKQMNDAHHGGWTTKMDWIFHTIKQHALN
T1 sequence (P27986 whole entry partner): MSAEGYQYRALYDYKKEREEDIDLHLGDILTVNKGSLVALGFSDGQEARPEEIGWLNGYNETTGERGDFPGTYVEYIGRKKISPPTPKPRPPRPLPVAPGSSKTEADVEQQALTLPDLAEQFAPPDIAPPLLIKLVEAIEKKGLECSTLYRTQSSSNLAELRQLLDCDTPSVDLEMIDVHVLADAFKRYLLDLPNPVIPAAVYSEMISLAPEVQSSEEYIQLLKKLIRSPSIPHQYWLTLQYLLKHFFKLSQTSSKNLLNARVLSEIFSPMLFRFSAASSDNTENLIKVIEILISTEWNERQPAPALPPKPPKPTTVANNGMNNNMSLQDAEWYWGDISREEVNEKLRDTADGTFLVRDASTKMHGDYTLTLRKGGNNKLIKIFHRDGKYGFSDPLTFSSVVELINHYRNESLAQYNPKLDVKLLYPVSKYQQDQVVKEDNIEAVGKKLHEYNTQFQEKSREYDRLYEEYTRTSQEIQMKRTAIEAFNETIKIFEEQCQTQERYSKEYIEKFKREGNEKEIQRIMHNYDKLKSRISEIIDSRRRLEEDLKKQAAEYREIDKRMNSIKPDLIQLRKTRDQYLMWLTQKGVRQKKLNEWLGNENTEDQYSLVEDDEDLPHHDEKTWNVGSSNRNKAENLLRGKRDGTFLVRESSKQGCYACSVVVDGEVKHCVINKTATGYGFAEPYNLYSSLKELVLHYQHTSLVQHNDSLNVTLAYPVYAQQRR

SMILES | pIC50
C[C@H](Nc1nc(N)ncc1-c1cccc(S(C)(=O)=O)c1)c1cc2cccc(Cl)c2c(=O)n1-c1ccccc1 [Compound 397] | 5.00 to 6.00
C[C@H](Nc1nc(N)ncc1-c1cccc(S(=O)(=O)C2CC2)c1)c1cc2cccc(Cl)c2c(=O)n1-c1ccccc1 [Compound 417] | 5.00 to 6.00

What follows are compounds tested against T2, PI3Kβ (Homo sapiens, UniProt P42338) (assay: PI3-Kinase HTRF assay, PI3Kβ). Conditions: bins Greater than 10 μM and Greater than 1 μM to 10 μM; 10 μM ATP, PIP2 at 10 μM.
T2 construct: purchased Millipore Corporation 14-603-K
T2 sequence (P42338 whole entry): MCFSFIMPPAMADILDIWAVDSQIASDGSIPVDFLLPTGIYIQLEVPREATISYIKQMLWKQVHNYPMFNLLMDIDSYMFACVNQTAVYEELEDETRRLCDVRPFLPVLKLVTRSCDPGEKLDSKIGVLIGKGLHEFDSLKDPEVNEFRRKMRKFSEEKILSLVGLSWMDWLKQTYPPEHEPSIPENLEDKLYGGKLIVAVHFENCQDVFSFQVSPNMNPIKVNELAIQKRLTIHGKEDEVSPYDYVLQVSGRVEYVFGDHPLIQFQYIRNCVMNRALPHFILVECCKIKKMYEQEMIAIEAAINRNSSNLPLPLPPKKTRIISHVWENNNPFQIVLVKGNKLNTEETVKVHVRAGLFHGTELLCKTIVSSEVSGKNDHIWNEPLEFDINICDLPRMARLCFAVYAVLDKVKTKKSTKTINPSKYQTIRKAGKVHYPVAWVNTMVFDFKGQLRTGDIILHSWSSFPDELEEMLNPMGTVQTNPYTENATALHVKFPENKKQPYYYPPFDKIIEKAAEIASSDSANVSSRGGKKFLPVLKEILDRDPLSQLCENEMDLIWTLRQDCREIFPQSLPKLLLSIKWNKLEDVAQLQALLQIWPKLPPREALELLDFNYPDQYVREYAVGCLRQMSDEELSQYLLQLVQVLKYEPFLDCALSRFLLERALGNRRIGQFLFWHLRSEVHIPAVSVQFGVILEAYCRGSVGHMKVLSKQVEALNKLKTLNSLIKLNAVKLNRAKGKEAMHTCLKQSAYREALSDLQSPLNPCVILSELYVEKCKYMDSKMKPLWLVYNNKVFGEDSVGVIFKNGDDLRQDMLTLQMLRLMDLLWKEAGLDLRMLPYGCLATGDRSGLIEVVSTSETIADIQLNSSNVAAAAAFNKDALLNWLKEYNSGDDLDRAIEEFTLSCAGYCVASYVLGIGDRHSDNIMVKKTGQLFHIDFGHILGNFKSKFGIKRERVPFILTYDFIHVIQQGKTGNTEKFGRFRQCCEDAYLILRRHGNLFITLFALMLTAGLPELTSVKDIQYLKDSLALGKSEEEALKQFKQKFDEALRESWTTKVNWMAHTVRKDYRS
T2 sequence (P27986 whole entry partner): as the sequence (P27986 whole entry partner) above
Type: biochemical
Outline: as §1

SMILES | pIC50
C[C@H](Nc1nc(N)ncc1-c1cnc(S(C)(=O)=O)s1)c1cc2cccc(Cl)c2c(=O)n1-c1ccccc1 [Compound 403] | 5.00 to 6.00
COc1cccc(-n2c([C@H](C)Nc3nc(N)ncc3C#N)cc3cccc(Cl)c3c2=O)c1 [Compound 288] | 5.00 to 6.00
C[C@H](Nc1nc(N)ncc1-c1cccc(S(C)(=O)=O)c1)c1cc2cccc(Cl)c2c(=O)n1-c1ccccc1 [Compound 397] | 5.00 to 6.00
Cc1ccc(NS(C)(=O)=O)cc1-c1cnc(N)nc1N[C@@H](C)c1cc2cccc(Cl)c2c(=O)n1-c1ccccc1 [Compound 412] | 5.00 to 6.00
COc1ncc(-c2cnc(N)nc2N[C@@H](C)c2cc3cccc(Cl)c3c(=O)n2-c2ccccc2)s1 [Compound 382] | 5.00 to 6.00
C[C@H](Nc1nc(N)ncc1-c1cccc(S(=O)(=O)C2CC2)c1)c1cc2cccc(Cl)c2c(=O)n1-c1ccccc1 [Compound 417] | 5.00 to 6.00

These compounds were tested on phospho-AKT in RAJI cells (PI3Kδ) (assay: PI3Kδ selective assay, phospho-AKT in RAJI cells). Conditions: RAJI cells stimulated with anti-human IgM; read-out: IC50 for phospho-AKT, RAJI cell model.
Type: cell-based
From the text: A compound's ability in selectively inhibiting PI3Kδ can be assessed using RAJI cells, i.e., B lymphocyte cells derived from lymphoma patients. Briefly, serum-starved RAJI cells are stimulated with anti-human IgM, thereby causing signaling through the B-cell receptors, as described in, for example, He et al., Leukemia Research (2009) 33: 798-802. B-cell receptor signaling is important for the activation, differentiation, and survival of B cells and certain B-cell derived cancers. Reduction of phospho-AKT is indicative of compounds that may inhibit B-cell proliferation and function in certain diseases. By monitoring the reduction of phospho-AKT in stimulated RAJI cells (using for example, phospho-AKT antibodies), a compound's potential efficacy in selectively inhibiting PI3Kδ can be assessed.

SMILES | pIC50
C[C@H](Nc1nc(N)ncc1-c1cnc(S(C)(=O)=O)s1)c1cc2cccc(Cl)c2c(=O)n1-c1ccccc1 [Compound 403] | > 7.00
C[C@H](Nc1nc(N)ncc1-c1ccoc1)c1cc2cccc(Cl)c2c(=O)n1-c1ccccc1 [Compound 379] | > 7.00
C[C@H](Nc1nc(N)ncc1-c1cccc(S(=O)(=O)N(C)C)c1)c1cc2cccc(Cl)c2c(=O)n1-c1ccccc1 [Compound 413] | > 7.00
C[C@H](Nc1nc(N)ncc1-c1cncs1)c1cc2cccc(-c3ccc(=O)n(C)c3)c2c(=O)n1-c1ccccc1 [Compound 387] | > 7.00
COc1ncc(-c2cccc3cc([C@H](C)Nc4ncnc(N)c4C#N)n(-c4ccccc4)c(=O)c23)cn1 [Compound 356] | > 7.00
C[C@H](Nc1nc(N)ncc1-c1cscn1)c1cc2cccc(-c3ccc(=O)n(C)c3)c2c(=O)n1-c1ccccc1 [Compound 393] | > 7.00
C[C@H](Nc1nc(N)ncc1-c1cccc(NS(=O)(=O)N(C)C)c1)c1cc2cccc(Cl)c2c(=O)n1-c1ccccc1 [Compound 410] | > 7.00
COc1cccc(-n2c([C@H](C)Nc3nc(N)ncc3C#N)cc3cccc(Cl)c3c2=O)c1 [Compound 288] | > 7.00
CC(C)OC(=O)c1cccc(-n2c([C@H](C)Nc3nc(N)ncc3C#N)cc3cccc(Cl)c3c2=O)c1 [Compound 312] | > 7.00
C[C@H](Nc1nc(N)ncc1-c1cccc(S(=O)(=O)N2CCCC2)c1)c1cc2cccc(Cl)c2c(=O)n1-c1ccccc1 [Compound 419] | > 7.00
C[C@H](Nc1nc(N)ncc1C#N)c1cc2cccc(Cl)c2c(=O)n1-c1cc(F)cc(F)c1 [Compound 273] | > 7.00
C[C@H](Nc1nc(N)ncc1-c1cccc(S(C)(=O)=O)c1)c1cc2cccc(Cl)c2c(=O)n1-c1ccccc1 [Compound 397] | > 7.00
Cc1ccc(NS(C)(=O)=O)cc1-c1cnc(N)nc1N[C@@H](C)c1cc2cccc(Cl)c2c(=O)n1-c1ccccc1 [Compound 412] | > 7.00
Cc1ncc(-c2cccc3cc([C@H](C)Nc4ncnc(N)c4C#N)n(-c4ccon4)c(=O)c23)cn1 [Compound 336] | > 7.00
COc1ncc(-c2cnc(N)nc2N[C@@H](C)c2cc3cccc(Cl)c3c(=O)n2-c2ccccc2)s1 [Compound 382] | > 7.00
C[C@H](Nc1nc(N)ncc1-c1cccc(S(=O)(=O)C2CC2)c1)c1cc2cccc(Cl)c2c(=O)n1-c1ccccc1 [Compound 417] | > 7.00
C[C@H](Nc1nc(N)ncc1-c1cccc(S(=O)(=O)N2CCCCC2)c1)c1cc2cccc(Cl)c2c(=O)n1-c1ccccc1 [Compound 157] | > 7.00

These compounds were tested on phospho-AKT in RAW 264.7 cells (PI3Kγ) (assay: PI3Kγ selective assay, phospho-AKT in RAW 264.7 cells). Conditions: Mus musculus, RAW264.7; stimulated with C5a; range between 1 μM and 10 μM; read-out: IC50 for phospho-AKT, RAW 264.7 cell model.
Type: cell-based
From the text: A compound's ability in selectively inhibiting PI3Kγ can be assessed using RAW264.7 macrophages. Briefly, serum-starved PAW264.7 cells are stimulated with a known GPCR agonist C5a. (See, e.g., Camps et al., Nature Medicine (2005) 11(9): 936-943). Cells can be treated with test compounds prior to, simultaneously with, or subsequent to the stimulation by C5a. RAW 264.7 cells respond to the complement component fragment C5a through activation of the C5a receptor, and the C5a receptor activates macrophages and induces cell migration. Test compounds' ability to inhibit C5a-mediated AKT phosphorylation is indicative of selective inhibition of PI3Kγ. Thus, by monitoring the reduction of phospho-AKT in stimulated RAW 264.7 cells (using for example, phospho-AKT antibodies), a compound's potential efficacy in selectively inhibiting PI3Kγ can be assessed.

SMILES | pIC50
Cc1ncc(-c2cccc3cc([C@H](C)Nc4ncnc(N)c4C#N)n(-c4ccon4)c(=O)c23)cn1 [Compound 336] | 5.00 to 6.00

Same assay, conditions: Mus musculus, RAW264.7; stimulated with C5a; ranges less than 100 nM and between 100 nM and 1 μM (given as 100-1000); read-out: IC50 for phospho-AKT, RAW 264.7 cell model

SMILES | pIC50
C[C@H](Nc1nc(N)ncc1-c1cnc(S(C)(=O)=O)s1)c1cc2cccc(Cl)c2c(=O)n1-c1ccccc1 [Compound 403] | > 7.00
C[C@H](Nc1nc(N)ncc1-c1ccoc1)c1cc2cccc(Cl)c2c(=O)n1-c1ccccc1 [Compound 379] | > 7.00
C[C@H](Nc1nc(N)ncc1-c1cccc(S(=O)(=O)N(C)C)c1)c1cc2cccc(Cl)c2c(=O)n1-c1ccccc1 [Compound 413] | > 7.00
C[C@H](Nc1nc(N)ncc1-c1cncs1)c1cc2cccc(-c3ccc(=O)n(C)c3)c2c(=O)n1-c1ccccc1 [Compound 387] | 6.00 to 7.00
COc1ncc(-c2cccc3cc([C@H](C)Nc4ncnc(N)c4C#N)n(-c4ccccc4)c(=O)c23)cn1 [Compound 356] | 6.00 to 7.00
C[C@H](Nc1nc(N)ncc1-c1cscn1)c1cc2cccc(-c3ccc(=O)n(C)c3)c2c(=O)n1-c1ccccc1 [Compound 393] | 6.00 to 7.00
C[C@H](Nc1nc(N)ncc1-c1cccc(NS(=O)(=O)N(C)C)c1)c1cc2cccc(Cl)c2c(=O)n1-c1ccccc1 [Compound 410] | > 7.00
COc1cccc(-n2c([C@H](C)Nc3nc(N)ncc3C#N)cc3cccc(Cl)c3c2=O)c1 [Compound 288] | > 7.00
CC(C)OC(=O)c1cccc(-n2c([C@H](C)Nc3nc(N)ncc3C#N)cc3cccc(Cl)c3c2=O)c1 [Compound 312] | 6.00 to 7.00
C[C@H](Nc1nc(N)ncc1-c1cccc(S(=O)(=O)N2CCCC2)c1)c1cc2cccc(Cl)c2c(=O)n1-c1ccccc1 [Compound 419] | > 7.00
C[C@H](Nc1nc(N)ncc1C#N)c1cc2cccc(Cl)c2c(=O)n1-c1cc(F)cc(F)c1 [Compound 273] | 6.00 to 7.00
C[C@H](Nc1nc(N)ncc1-c1cccc(S(C)(=O)=O)c1)c1cc2cccc(Cl)c2c(=O)n1-c1ccccc1 [Compound 397] | > 7.00
Cc1ccc(NS(C)(=O)=O)cc1-c1cnc(N)nc1N[C@@H](C)c1cc2cccc(Cl)c2c(=O)n1-c1ccccc1 [Compound 412] | > 7.00
COc1ncc(-c2cnc(N)nc2N[C@@H](C)c2cc3cccc(Cl)c3c(=O)n2-c2ccccc2)s1 [Compound 382] | > 7.00
C[C@H](Nc1nc(N)ncc1-c1cccc(S(=O)(=O)C2CC2)c1)c1cc2cccc(Cl)c2c(=O)n1-c1ccccc1 [Compound 417] | > 7.00
C[C@H](Nc1nc(N)ncc1-c1cccc(S(=O)(=O)N2CCCCC2)c1)c1cc2cccc(Cl)c2c(=O)n1-c1ccccc1 [Compound 157] | > 7.00
